Measured values from PMC9329436, “Optimization of the 4-anilinoquin(az)oline scaffold as epidermal growth factor receptor (EGFR) inhibitors for chordoma utilizing a toxicology profiling assay platform” (Scientific Reports, 2022).
Where two headings read alike, the source gives them in different places.

Columns and labels:
Type in all cases: biochemical
[1] = target: 320 wild-type protein kinases (Homo sapiens, UniProt P09769); settings: FGR, singlicate
Source text: (§1) Table S4. Profiling of two compounds at two concentrations against 320 wild-type protein kinases; singlicate measurement; Residual activities (% of control).

[2] = target: 320 wild-type protein kinases (Homo sapiens, UniProt Q13233); settings: singlicate
Source text: as §1

[3] = target: T1, 320 wild-type protein kinases (Homo sapiens, UniProt P51817); settings: kinase PRKX, singlicate
T1 sequence (P51817 1-358): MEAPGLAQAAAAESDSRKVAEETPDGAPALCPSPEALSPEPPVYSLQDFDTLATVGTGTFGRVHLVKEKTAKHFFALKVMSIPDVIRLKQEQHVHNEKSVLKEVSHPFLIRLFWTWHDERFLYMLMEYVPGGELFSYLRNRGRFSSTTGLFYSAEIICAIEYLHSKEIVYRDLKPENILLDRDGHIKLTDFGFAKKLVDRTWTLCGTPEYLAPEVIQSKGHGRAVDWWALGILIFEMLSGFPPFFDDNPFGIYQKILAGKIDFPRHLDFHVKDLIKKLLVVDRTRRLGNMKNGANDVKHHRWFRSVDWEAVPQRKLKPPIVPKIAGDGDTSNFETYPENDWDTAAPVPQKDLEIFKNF
Source text: as §1

[4] = target: T2, 320 wild-type protein kinases (Homo sapiens, UniProt Q8IWQ3); settings: singlicate
T2 sequence (Q8IWQ3 1-736): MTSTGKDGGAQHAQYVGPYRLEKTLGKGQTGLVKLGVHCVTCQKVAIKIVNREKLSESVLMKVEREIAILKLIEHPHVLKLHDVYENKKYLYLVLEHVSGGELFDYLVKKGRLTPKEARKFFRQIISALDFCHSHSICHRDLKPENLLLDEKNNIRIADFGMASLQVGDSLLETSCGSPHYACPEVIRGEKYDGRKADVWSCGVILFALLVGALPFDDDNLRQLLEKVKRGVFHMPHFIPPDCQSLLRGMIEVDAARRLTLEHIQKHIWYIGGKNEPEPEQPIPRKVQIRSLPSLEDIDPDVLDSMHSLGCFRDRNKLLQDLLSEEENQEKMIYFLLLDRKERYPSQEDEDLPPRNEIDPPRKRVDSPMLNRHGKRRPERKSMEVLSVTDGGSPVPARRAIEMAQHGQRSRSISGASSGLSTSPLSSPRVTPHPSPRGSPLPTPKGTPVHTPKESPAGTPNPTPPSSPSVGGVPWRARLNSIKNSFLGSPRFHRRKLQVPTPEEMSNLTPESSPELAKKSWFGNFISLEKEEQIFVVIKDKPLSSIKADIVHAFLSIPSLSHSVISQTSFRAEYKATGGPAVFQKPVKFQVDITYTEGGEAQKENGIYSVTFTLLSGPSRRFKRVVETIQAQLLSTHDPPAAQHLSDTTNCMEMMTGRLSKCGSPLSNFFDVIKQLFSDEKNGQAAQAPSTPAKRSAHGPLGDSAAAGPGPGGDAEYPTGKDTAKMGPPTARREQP
Source text: as §1

[5] = target: T3, 320 wild-type protein kinases (Homo sapiens, UniProt P35626); settings: singlicate
T3 sequence (P35626 1-688): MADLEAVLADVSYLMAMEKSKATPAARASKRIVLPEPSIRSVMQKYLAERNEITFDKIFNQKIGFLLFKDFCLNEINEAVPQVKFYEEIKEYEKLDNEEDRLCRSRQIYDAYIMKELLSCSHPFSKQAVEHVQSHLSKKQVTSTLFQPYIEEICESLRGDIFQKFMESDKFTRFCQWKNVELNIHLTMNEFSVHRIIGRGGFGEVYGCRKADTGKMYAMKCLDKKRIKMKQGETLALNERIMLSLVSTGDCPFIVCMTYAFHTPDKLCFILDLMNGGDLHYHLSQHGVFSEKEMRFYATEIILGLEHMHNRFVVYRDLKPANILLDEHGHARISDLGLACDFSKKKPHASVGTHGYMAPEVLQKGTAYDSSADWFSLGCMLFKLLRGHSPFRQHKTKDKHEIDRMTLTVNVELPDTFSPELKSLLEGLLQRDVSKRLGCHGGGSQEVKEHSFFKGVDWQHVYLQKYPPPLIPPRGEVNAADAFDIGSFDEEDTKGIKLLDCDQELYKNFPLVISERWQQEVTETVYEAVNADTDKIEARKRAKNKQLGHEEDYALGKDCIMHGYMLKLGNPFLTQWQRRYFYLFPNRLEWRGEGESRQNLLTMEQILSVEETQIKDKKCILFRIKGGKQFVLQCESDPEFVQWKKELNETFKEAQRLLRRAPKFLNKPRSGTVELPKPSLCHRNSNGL
Source text: as §1

[6] = target: T4, 320 wild-type protein kinases (Homo sapiens, UniProt P51813); settings: BMX, singlicate
T4 sequence (P51813 1-675): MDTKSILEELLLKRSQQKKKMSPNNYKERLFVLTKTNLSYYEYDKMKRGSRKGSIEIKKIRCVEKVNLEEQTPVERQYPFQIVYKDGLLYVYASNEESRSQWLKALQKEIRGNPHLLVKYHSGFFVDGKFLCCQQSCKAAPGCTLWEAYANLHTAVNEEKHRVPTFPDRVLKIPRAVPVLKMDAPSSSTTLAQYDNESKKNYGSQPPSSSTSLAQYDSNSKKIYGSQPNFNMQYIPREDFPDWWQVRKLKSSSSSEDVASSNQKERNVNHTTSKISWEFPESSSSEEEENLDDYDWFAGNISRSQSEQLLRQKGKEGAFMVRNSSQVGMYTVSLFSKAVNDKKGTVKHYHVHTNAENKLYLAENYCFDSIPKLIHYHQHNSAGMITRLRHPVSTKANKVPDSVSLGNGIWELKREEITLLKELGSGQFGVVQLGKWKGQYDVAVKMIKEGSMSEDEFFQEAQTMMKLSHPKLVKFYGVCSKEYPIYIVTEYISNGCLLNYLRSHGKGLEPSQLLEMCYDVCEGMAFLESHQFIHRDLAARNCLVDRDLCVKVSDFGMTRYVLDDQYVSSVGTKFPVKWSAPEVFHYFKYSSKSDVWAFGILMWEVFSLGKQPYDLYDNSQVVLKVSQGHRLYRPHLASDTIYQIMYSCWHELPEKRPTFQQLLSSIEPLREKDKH
Source text: as §1

Chain of 320 wild-type protein kinases (Homo sapiens, UniProt P09769) (P09769 whole entry): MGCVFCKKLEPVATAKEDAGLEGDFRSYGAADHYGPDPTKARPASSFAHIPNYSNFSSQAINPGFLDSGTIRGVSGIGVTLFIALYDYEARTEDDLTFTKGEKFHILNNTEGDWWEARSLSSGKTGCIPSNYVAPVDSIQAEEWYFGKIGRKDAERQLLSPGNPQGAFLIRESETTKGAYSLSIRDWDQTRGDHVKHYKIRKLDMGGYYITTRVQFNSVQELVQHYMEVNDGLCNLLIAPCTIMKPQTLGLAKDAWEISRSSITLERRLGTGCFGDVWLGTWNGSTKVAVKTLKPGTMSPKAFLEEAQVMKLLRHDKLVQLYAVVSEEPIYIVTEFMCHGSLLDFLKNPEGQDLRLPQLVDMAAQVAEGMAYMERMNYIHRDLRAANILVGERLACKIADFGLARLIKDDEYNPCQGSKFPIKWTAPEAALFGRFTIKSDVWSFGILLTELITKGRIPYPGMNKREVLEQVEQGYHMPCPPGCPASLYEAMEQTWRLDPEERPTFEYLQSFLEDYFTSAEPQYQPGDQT
Chain of 320 wild-type protein kinases (Homo sapiens, UniProt Q13233) (Q13233 whole entry): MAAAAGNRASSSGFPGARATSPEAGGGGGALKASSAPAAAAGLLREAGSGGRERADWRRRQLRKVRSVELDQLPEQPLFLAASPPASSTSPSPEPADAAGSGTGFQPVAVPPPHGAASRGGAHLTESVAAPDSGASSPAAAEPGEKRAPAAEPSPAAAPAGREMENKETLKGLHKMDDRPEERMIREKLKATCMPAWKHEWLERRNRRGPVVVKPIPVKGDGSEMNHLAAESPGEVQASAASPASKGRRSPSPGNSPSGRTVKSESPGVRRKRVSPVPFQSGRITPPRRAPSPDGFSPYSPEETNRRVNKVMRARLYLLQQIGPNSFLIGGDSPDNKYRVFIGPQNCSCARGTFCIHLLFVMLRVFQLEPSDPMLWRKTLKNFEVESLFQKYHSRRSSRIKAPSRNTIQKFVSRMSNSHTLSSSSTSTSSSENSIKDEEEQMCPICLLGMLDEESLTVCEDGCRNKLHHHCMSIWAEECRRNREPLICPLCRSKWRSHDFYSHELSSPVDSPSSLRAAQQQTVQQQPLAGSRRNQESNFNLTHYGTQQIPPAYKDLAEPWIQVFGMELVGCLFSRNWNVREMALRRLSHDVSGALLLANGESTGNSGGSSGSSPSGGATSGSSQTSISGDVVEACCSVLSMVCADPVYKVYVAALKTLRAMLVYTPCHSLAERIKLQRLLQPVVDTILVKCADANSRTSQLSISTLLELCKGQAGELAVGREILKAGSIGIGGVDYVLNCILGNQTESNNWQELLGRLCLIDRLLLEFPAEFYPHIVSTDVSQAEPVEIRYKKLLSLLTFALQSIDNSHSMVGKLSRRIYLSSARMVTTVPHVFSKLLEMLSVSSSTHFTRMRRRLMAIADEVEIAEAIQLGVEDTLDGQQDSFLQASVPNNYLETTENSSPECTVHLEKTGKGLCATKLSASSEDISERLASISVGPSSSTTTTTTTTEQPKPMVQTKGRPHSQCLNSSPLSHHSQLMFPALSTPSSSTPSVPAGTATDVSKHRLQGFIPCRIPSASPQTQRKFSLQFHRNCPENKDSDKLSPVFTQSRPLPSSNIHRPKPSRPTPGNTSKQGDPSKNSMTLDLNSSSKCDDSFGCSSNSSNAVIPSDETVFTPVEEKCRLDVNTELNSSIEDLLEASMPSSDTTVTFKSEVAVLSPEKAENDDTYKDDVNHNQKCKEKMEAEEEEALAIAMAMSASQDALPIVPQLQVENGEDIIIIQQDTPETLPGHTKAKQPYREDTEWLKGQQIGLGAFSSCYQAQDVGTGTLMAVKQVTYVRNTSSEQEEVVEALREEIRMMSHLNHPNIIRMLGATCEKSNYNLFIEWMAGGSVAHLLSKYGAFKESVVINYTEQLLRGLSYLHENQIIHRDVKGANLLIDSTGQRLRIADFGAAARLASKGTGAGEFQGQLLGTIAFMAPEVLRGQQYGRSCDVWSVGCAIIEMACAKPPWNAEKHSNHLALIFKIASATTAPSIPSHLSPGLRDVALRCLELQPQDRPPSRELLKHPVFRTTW

C#Cc1cc(Nc2ncnc3cc(I)ccc23)ccc1Cl [Compound 41]
Residual activity ([1]; 1.0E-06 M): 114 % of control
Residual activity ([1]; 1.0E-07 M): 129 % of control
Residual activity ([2]; MAP3K1, 1.0E-06 M): 93 % of control
Residual activity ([2]; MAP3K1, 1.0E-07 M): 96 % of control
Residual activity, PRKX ([3]; assay conc. 1.0E-06 M): 123 % of control
Residual activity, PRKX ([3]; assay conc. 1.0E-07 M): 138 % of control
Residual activity ([4]; BRSK2, 1.0E-06 M): 100 % of control
Residual activity ([4]; BRSK2, 1.0E-07 M): 98 % of control
Residual activity ([5]; GRK3, 1.0E-06 M): 127 % of control
Residual activity ([5]; GRK3, 1.0E-07 M): 131 % of control
Residual activity ([6]; 1.0E-06 M): 77 % of control
Residual activity ([6]; 1.0E-07 M): 86 % of control

C#Cc1cc(Nc2ncnc3cc(OC)c(OC)cc23)ccc1Cl [Compound 45]
Residual activity ([1]; 1.0E-06 M): 94 % of control
Residual activity ([1]; 1.0E-07 M): 125 % of control
Residual activity ([2]; MAP3K1, 1.0E-06 M): 96 % of control
Residual activity ([2]; MAP3K1, 1.0E-07 M): 96 % of control
Residual activity, PRKX ([3]; assay conc. 1.0E-06 M): 118 % of control
Residual activity, PRKX ([3]; assay conc. 1.0E-07 M): 117 % of control
Residual activity ([4]; BRSK2, 1.0E-06 M): 101 % of control
Residual activity ([4]; BRSK2, 1.0E-07 M): 106 % of control
Residual activity ([5]; GRK3, 1.0E-06 M): 118 % of control
Residual activity ([5]; GRK3, 1.0E-07 M): 123 % of control
Residual activity ([6]; 1.0E-06 M): 81 % of control
Residual activity ([6]; 1.0E-07 M): 92 % of control
